Measured values: US10654852B2, “Antibiotics and methods of using same” (THE BROAD INSTITUTE, INC., priority 2016, dated 2020)
≈ marks a conversion by molar mass, not a printed value.

How the values were obtained:
Assay type in all cases: cell-based
[1] = tested on: Staphylococcus aureus NRS-384; assay: MIC (50% NHS); details: NRS384; Staphylococcus aureus NRS-384, 50% NHS
[2] = tested on: Enterobacter cloacae ATCC-222; assay: MIC (50% NHS); details: ATCC222; Enterobacter cloacae ATCC-222, 50% NHS
[3] = tested on: Pseudomonas aeruginosa ATCC-BAA-47 (PAO1); assay: MIC (50% NHS)
[4] = tested on: Proteus mirabilis ATCC-29906; assay: MIC (50% NHS); details: ATCC29906; Proteus mirabilis ATCC-29906, 50% NHS
[5] = tested on: Escherichia coli ATCC-25922; assay: MIC in the presence of normal human serum (50% NHS); details: ATCC25922; Escherichia coli ATCC-25922, 50% NHS, Table 6; read-out: MIC
Excerpt: As used herein, the term “MIC” refers to minimum inhibitory concentrations. Minimum inhibitory concentrations may be determined by broth microdilution according to the Clinical and Laboratory Standards Institute guidelines (see, e.g., […]-A8. Methods for dilution antimicrobial susceptibility tests for bacteria that grow aerobically: approved standard, 8th Ed.; […] One example for measuring minimum inhibitory concentrations may be found in Reck et al., 2012, J. Med. Chem. 55:6916-6933, the disclosure of which is incorporated by reference. Inoculants may be incubated on blood agar plates for 18 to 24 hours. Incubation may occur at a temperature from about 35° C. to about 37° C. […] In serum supplemented experiments, the testing medium (e.g., DMSO solution) and human serum may be mixed. The ratio of testing medium to human serum may be 1:1 (vol:vol). Plates may be read by spectrophotometry at 620 nm. Unless indicated otherwise, all inhibitory concentrations recited in the specification relate to MICs. The MIC tests were based on broth microdilution method in CLSI-M7. […] Solutions of varying concentrations of DMSO were prepared in wells of a v-bottom 96-well plate (Axygen-WIPP02280). A multi-pipette was used to perform serial dilutions as necessary. From well to well, the drug concentrations were 6.4, 3.2, 1.6, 0.8, 0.4, 0.2, 0.1, 0.05, 0.025, 0.0125, 0.00625 and 0 mg/ml in DMSO. For extremely potent antibiotic, the starting concentrations were adjusted accordingly. This was the drug mother plate. Daughter plates were prepared by placing 98 μl of a testing medium into each well of a u-bottom 96-well plate (Costar 3788). An aliquot of each 2 μl solution from each well of the mother plate was then transferred into the corresponding wells of the daughter plate using a multi-pipette work station (CyBi®-SELMA). Testing media were selected based on CLSI-M7, M11 and […]. Cation adjusted Mueller Hinton Broth (CA-MHB-212322) was the testing medium for majority of bacterial species. Brucella medium (BD-211088) supplemented with 5% LHB, 0.5% hemin and 0.1% vitamin K1 (Sigma-95271) was the testing medium for anaerobic bacteria. One day prior to the day of MIC test, bacterial strains were streaked out from -80° C. glycerol stock onto Trypticase Soy Agar (TSA) plates (Brucella blood agar for anaerobic bacteria) and incubated at 37° C. for 20 hours (in anaerobic condition for anaerobic bacteria, e.g., 80% N2, 10% H2 and 10% CO2). Single colonies of bacteria were picked by using an inoculation loop (Greiner-731175) and suspended into 5 ml sterile saline. The turbidity of the suspension was adjusted to 0.10 (Siemens MicroS can turbidity meter), which implies a concentration of colony forming units (“CFU”) of approximately 1.0×10^8 CFU/ml. The bacterial suspension was diluted 100× in testing media. For MIC experiments with NHS, testing medium and human serum (Equitech Bio Inc. BRH-949908) were mixed in the ratio of 1:1. This was used for inoculation of the daughter plates. An aliquot of 100 μl of the bacterial suspension was inoculated into each well of the daughter plates using a multi-pipette. […] The plates were incubated in ambient atmosphere and at 37° C. in an incubator for 20 hours (for anaerobic bacteria in an anaerobic condition as described above for 48 hours). The MIC values were determined and based on the standards of CLSI methods M7-A7, broth microdilution method. […] Test compounds were compared to control antibiotics Penicillin G (Sigma-13752) and levofloxacin (Sigma-28266). […] Additionally, the MIC's of another gyrase inhibitor (“GSK”) with a structure different from the inventive compounds and the antibacterial levofloxin was measured. MIC are given in μg/mL.

[6] = tested on: Enterococcus faecalis ATCC-29212; assay: MIC (50% NHS); details: ATCC29212; Enterococcus faecalis ATCC-29212, 50% NHS
[7] = tested on: Escherichia coli NCTC-13476; assay: MIC (50% NHS); details: NCTC13476; Escherichia coli NCTC-13476, 50% NHS
[8] = tested on: Staphylococcus aureus ATCC-29213; assay: MIC (50% NHS); details: ATCC29213; Staphylococcus aureus ATCC-29213, 50% NHS
[9] = tested on: Escherichia coli ATCC-BAA-2340; assay: MIC (50% NHS); details: ATCCBAA2340; Escherichia coli ATCC-BAA-2340, 50% NHS
[10] = tested on: Enterobacter aerogenes ATCC-13048; assay: MIC (50% NHS); details: Klebsiella aerogenes, ATCC13048; Enterobacter aerogenes ATCC-13048, 50% NHS
[11] = tested on: Klebsiella pneumonia ATCC-43816; assay: MIC (50% NHS); details: Klebsiella pneumoniae, ATCC43816; Klebsiella pneumonia ATCC-43816, 50% NHS
[12] = tested on: Staphylococcus aureus NRS-100; assay: MIC (50% NHS); details: NRS100; Staphylococcus aureus NRS-100, 50% NHS
[13] = tested on: Klebsiella pneumonia ATCC-700603; assay: MIC (50% NHS); details: Klebsiella pneumoniae, ATCC700603; Klebsiella pneumonia ATCC-700603, 50% NHS
[14] = tested on: Enterococcus faecium ATCC-700221; assay: MIC (50% NHS); details: ATCC700221; Enterococcus faecium ATCC-700221, 50% NHS
[15] = tested on: Staphylococcus aureus WX1-009; assay: MIC (50% NHS); details: WX1009; Staphylococcus aureus WX1-009, 50% NHS
[16] = tested on: Enterobacter cloacae ATCC-BAA-1143; assay: MIC (50% NHS); details: ATCCBAA1143; Enterobacter cloacae ATCC-BAA-1143, 50% NHS
[17] = tested on: Serratia marcescens Bizio ATCC-29021; assay: MIC (50% NHS); details: ATCC29021; Serratia marcescens Bizio ATCC-29021, 50% NHS
[18] = tested on: Acinetobacter baumannii ATCC 17978; assay: MIC (50% NHS); details: ATCC17978; Acinetobacter baumannii ATCC 17978, 50% NHS
[19] = tested on: Escherichia coli CCUG-59353; assay: MIC (50% NHS); details: CCUG59353; Escherichia coli CCUG-59353, 50% NHS
[20] = tested on: Citrobacter werkmanii Brenner ATCC-51114; assay: MIC (50% NHS); details: ATCC51114; Citrobacter werkmanii Brenner ATCC-51114, 50% NHS

C[C@H]1COc2c(N3CCN(C)CC3)c(F)cc3c(=O)c(C(=O)O)cn1c23 [Levofloxin, reference compound]
MIC [1]: 1 µg/mL (≈ 2.77 µM) | MIC [2]: 0.06 µg/mL (≈ 0.166 µM) | MIC [3]: 1 µg/mL (≈ 2.77 µM) | MIC [4]: 0.25 µg/mL (≈ 0.692 µM) | MIC [5]: 0.031 µg/mL | MIC [6]: 2 µg/mL (≈ 5.53 µM) | MIC [7]: > 2 µg/mL | MIC [8]: 0.5 µg/mL (≈ 1.38 µM) | MIC [9]: > 2 µg/mL | MIC [10]: 0.13 µg/mL (≈ 0.36 µM) | MIC [11]: 0.13 µg/mL (≈ 0.36 µM) | MIC [12]: 0.5 µg/mL (≈ 1.38 µM) | MIC [13]: 0.5 µg/mL (≈ 1.38 µM) | MIC [14]: > 2 µg/mL | MIC [15]: > 2 µg/mL | MIC [16]: 0.06 µg/mL (≈ 0.166 µM) | MIC [17]: 0.13 µg/mL (≈ 0.36 µM) | MIC [18]: 1 µg/mL (≈ 2.77 µM) | MIC [19]: > 2 µg/mL | MIC [20]: 0.25 µg/mL (≈ 0.692 µM)
